Experimental data published in US20240329050A1, “METHODS OF DETECTING PENTASACCHARIDES AND TREATMENT AND MONITORING OF LYSOSOMAL STORAGE DISEASE” (Washington University, priority 2021, published 2024).
Values joined by “and” are separate entries in the source; they are usually repeats but may differ in a detail not shown here. Equal entries are not always repeated.

Test: Validation of stability of H3N2b in urine, plasma, CSF, stock solution and standard curve matrix
Assay type: physicochemical, human
Description: Validation of stability-The long-term storage, freeze/thaw stabilities, and stabilities on the bench-top and in the autosampler were determined at the LQC and HQC concentration levels (n=3). Long-term storage stabilities of […]-80° C. in urine, plasma, CSF were tested. Bench-top stabilities of […] were evaluated in urine at room temperature, in plasma at room temperature, in CSF at room temperature and 4° C. Freeze/thaw stability in urine, plasma, CSF was tested by freezing the samples at -80° C. overnight, followed by thawing to room temperature the next day. This process was repeated three times. […] Stock solution stability was established by quantification of samples from dilution of two stock solutions that were stored at -20° C. and at room temperature on the bench, respectively, to the final solution (10000 ng/mL in water). The stabilities of […] in the matrix of standard curve for urine, plasma, CSF were test after storage at room temperature and at -80° C. […] standard curve was established each time.

Compound: CC(=O)N[C@H]1[C@H](O[C@@H]2[C@@H](O[C@@H]3[C@H](O)[C@H](O[C@H]4[C@H](O)[C@@H](NC(C)=O)C(O)O[C@@H]4CO)O[C@H](CO)[C@H]3O)O[C@H](CO)[C@@H](O)[C@@H]2O)O[C@H](CO)[C@@H](O[C@@H]2O[C@H](CO)[C@H](O)[C@H](O)[C@H]2O)[C@@H]1O (stereo partly drawn) [H3N2b, O-β-D-galactopyranosyl-(1→4)-O-(2-acetamido-2-deoxy-β-D-glucopyranosyl)-(1→2)-O-α-D-mannopyranosyl-(1→3)-O-β-D-mannopyranosyl-(1→4)-2-acetamido-2-deoxy-α,β-D-glucopyranose]
- Stable after freeze/thaw cycles (CSF): 3 freeze/thaw cycles
- Stable for (CSF at 4° C.): 1 days
- Stable for (CSF at −80° C.): 125 days
- Stable for (CSF, room temperature): 0.083 days
- Stable for (matrix of standard curve for urine, plasma, CSF, room temperature): 1 days
- Stable after freeze/thaw cycles (plasma): 3 freeze/thaw cycles
- Stable for (plasma at −80° C.): 158 days
- Stable for (plasma, room temperature): 1 days
- Stable for (processed CSF samples at 4° C.): 3 days
- Stable for (processed plasma samples at 4° C.): 3 days
- Stable for (processed urine samples at 4° C.): 3 days
- Stable for (standard curve samples for CSF at −80° C.): 125 days
- Stable for (standard curve samples for plasma at −80° C.): 158 days
- Stable for (standard curve samples for urine at −80° C.): 194 days
- Stable for (stock solution at −20° C.): 232 days and 231 days
- Stable for (stock solution, room temperature): 1 days
- Stable after freeze/thaw cycles (urine): 3 freeze/thaw cycles
- Stable for (urine at −80° C.): 194 days
- Stable for (urine, room temperature): 1 days
